ChEMBL document CHEMBL1201862, “PubChem BioAssay data set” (2004)
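These data come from cells grown in 96-well plates and exposed to compound for 48 hours at five concentrations. GI50 = concentration required for 50% inhibition of growth.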 Active and inactive are the calls of the source. Cut-off read from the data, not from the text of the source: active = GI50 up to about 1.1 µM and inactive = higher.

What was measured:
Assay in all cases: inhibition of tumour cell growth, NCI panel, 48 h
LXFL 529 = tested on: LXFL 529
KM-20L2 = tested on: KM-20L2
DLD-1 = tested on: DLD-1
M19-MEL = tested on: M19-MEL
HOP-18 = tested on: HOP-18
DMS-273 = tested on: DMS-273
SNB-78 = tested on: SNB-78
XF498 = tested on: XF498
RXF 631 = tested on: RXF 631

Row | SMILES | GI50 (LXFL 529) | GI50 (KM-20L2) | GI50 (DLD-1) | GI50 (M19-MEL) | GI50 (HOP-18) | GI50 (DMS-273) | GI50 (SNB-78) | GI50 (XF498) | GI50 (RXF 631)
1 | COc1ccc(-c2nc3c(nc2-c2ccc(OC)cc2)N(C)S(=O)(=O)N=C3N)cc1 | 27.3 µM (inactive) | 40.6 µM (inactive) | 33.3 µM (inactive) | 31.5 µM (inactive) | 47.2 µM (inactive) | 41.6 µM (inactive) |  |  | 
2 | CCOc1ccc2c(c1)[n+]([O-])c(C(N)=O)c(N)[n+]2[O-] | > 100 µM (inactive) | > 100 µM (inactive) | > 100 µM (inactive) | > 100 µM (inactive) | > 100 µM (inactive) | > 100 µM (inactive) | > 100 µM (inactive) | > 100 µM (inactive) | 
3 | COc1c(OC2OC(CO)C(O)C(O)C2O)cc2c(c1OC)-c1ccc(OC)c(=O)cc1[C@@H](NC(C)=O)CC2 (some centres undefined) | 54.1 µM (inactive) | > 100 µM (inactive) | > 100 µM (inactive) | 60.1 µM (inactive) | > 100 µM (inactive) | > 100 µM (inactive) | 61 µM (inactive) | 29.3 µM (inactive) | > 100 µM (inactive)
4 | N#CC1=C(c2ccccc2)OC2(N)OC(c3ccccc3)=C(C#N)C12C#N (centres undefined) | 74 µM (inactive) | > 100 µM (inactive) | > 100 µM (inactive) | > 100 µM (inactive) | 21.6 µM (inactive) | > 100 µM (inactive) | > 100 µM (inactive) | > 100 µM (inactive) | > 100 µM (inactive)
5 | Cc1ccc(S(=O)(=O)C2CC2(Cl)Cl)cc1 (centres undefined) | 18.9 µM (inactive) | > 100 µM (inactive) | 24.2 µM (inactive) | 25.1 µM (inactive) |  | 32.5 µM (inactive) |  | 21.2 µM (inactive) | 20.9 µM (inactive)
6 | O=[N+]([O-])c1cccc(S(=O)(=O)N/N=C/c2cc(I)cc([N+](=O)[O-])c2O)c1 | 21.5 µM (inactive) | 43 µM (inactive) | 42.5 µM (inactive) | 34.8 µM (inactive) | 29.6 µM (inactive) | 25.6 µM (inactive) | 22 µM (inactive) |  | 
7 | COC(=O)CCC(=O)CC(=O)C(=O)Nc1c(Cl)cc([N+](=O)[O-])cc1Cl | > 100 µM (inactive) | > 100 µM (inactive) | 65.6 µM (inactive) | > 100 µM (inactive) | > 100 µM (inactive) | > 100 µM (inactive) | > 100 µM (inactive) | > 100 µM (inactive) | > 100 µM (inactive)
8 | O=c1[nH]cc(F)c(=O)n1C1OC(CO)C(O)C1O (centres undefined) | > 100 µM (inactive) | > 100 µM (inactive) | > 100 µM (inactive) |  | > 100 µM (inactive) | > 100 µM (inactive) | > 100 µM (inactive) | > 100 µM (inactive) | 
9 | CN(C(=O)C12C3C4C5C3C1(C(=O)O)C5C42)C(C)(C)C (centres undefined) | 74.8 µM (inactive) | > 100 µM (inactive) | 23.7 µM (inactive) | > 100 µM (inactive) | > 100 µM (inactive) | 16.5 µM (inactive) | > 100 µM (inactive) | > 100 µM (inactive) | > 100 µM (inactive)
10 | CN(C)/N=N/c1ccc(S(N)(=O)=O)cc1 |  | > 100 µM (inactive) | > 100 µM (inactive) | > 100 µM (inactive) | > 100 µM (inactive) | > 100 µM (inactive) |  | > 100 µM (inactive) | 
11 | Cc1ccccc1C(C#N)/C(=N/NC(=O)c1cc2ccccc2cc1O)C(=O)Nc1cccc(Cl)c1 (centres undefined) | 20.5 µM (inactive) | 31.1 µM (inactive) | 18.4 µM (inactive) | 17.3 µM (inactive) | 5.37 µM (inactive) | 6.75 µM (inactive) | 21.8 µM (inactive) | 14.8 µM (inactive) | 
12 | C[n+]1c2ccccc2c(CNCC(=O)O)c2ccccc21 | 1.07 µM (active) | 0.327 µM (active) | 0.659 µM (active) | 4.43 µM (inactive) | 10.3 µM (inactive) | 0.646 µM (active) | 11.3 µM (inactive) | 2.14 µM (inactive) | 
13 | C[Si](C)(c1ccccc1)C1CC(=O)CC(=O)C1 | > 100 µM (inactive) | > 100 µM (inactive) | > 100 µM (inactive) | > 100 µM (inactive) | > 100 µM (inactive) | > 100 µM (inactive) | > 100 µM (inactive) | > 100 µM (inactive) | 
14 | O=c1c(-c2ccccc2)c2oc(c1-c1ccccc1)CSCc1cccc(c1)CSC2 | 39 µM (inactive) | 67.9 µM (inactive) | 54.7 µM (inactive) | 45.9 µM (inactive) | 27.8 µM (inactive) | 39.5 µM (inactive) | 82.8 µM (inactive) |  | 
15 | CCOC(=O)[C@H]1Nc2ccc(O)cc2C2c3ccccc3CC21 (some centres undefined) | 42.6 µM (inactive) | > 100 µM (inactive) | 70.8 µM (inactive) | 55.1 µM (inactive) | > 100 µM (inactive) | 59.2 µM (inactive) | > 100 µM (inactive) |  | > 100 µM (inactive)
16 | COc1nc2c(c(O)c(C)c(=O)n2OC2OCC(OC(C)=O)C(OC(C)=O)C2OC(C)=O)c(=O)n1C (centres undefined) | > 100 µM (inactive) | > 100 µM (inactive) | > 100 µM (inactive) | > 100 µM (inactive) |  | > 100 µM (inactive) | > 100 µM (inactive) | > 100 µM (inactive) | 
17 | Cc1ccc(S(=O)(=O)NC2(C=O)CCC(C(C)(C)C)CC2)cc1 (centres undefined) | > 100 µM (inactive) | 28.8 µM (inactive) | 35.2 µM (inactive) | 24.7 µM (inactive) | 29.2 µM (inactive) | 27.7 µM (inactive) | > 100 µM (inactive) | 43.8 µM (inactive) | 31.8 µM (inactive)
18 | Nc1nc2c(ncn2CCCC(c2ccccc2)P(=O)(O)O)c(=O)[nH]1 (centres undefined) | > 100 µM (inactive) | > 100 µM (inactive) | > 100 µM (inactive) | > 100 µM (inactive) | 62.4 µM (inactive) | > 100 µM (inactive) | > 100 µM (inactive) |  | 
19 | C[C@@H]1OC(=O)N2CCCC(=C3SCCCS3)C12 (some centres undefined) | 44.8 µM (inactive) | 93.8 µM (inactive) |  | 45.6 µM (inactive) | 52.5 µM (inactive) | 97.7 µM (inactive) | > 100 µM (inactive) | 36.6 µM (inactive) | 
20 | COC(=O)C(C(=O)C(=O)Nc1ccc(C(F)(F)F)cc1[N+](=O)[O-])c1csc(-n2nc(-c3ccccc3)cc2-c2ccccc2)n1 (centres undefined) | > 100 µM (inactive) | > 100 µM (inactive) |  | > 100 µM (inactive) |  | > 100 µM (inactive) | > 100 µM (inactive) |  | 
21 | Cc1cc2c(C(C)C)c(O)c(O)c(/C=N\CCO)c2c(O)c1-c1c(C)cc2c(C(C)C)c(O)c(O)c(/C=N/CCO)c2c1O | 1.64 µM (inactive) |  | 3.33 µM (inactive) | 1.86 µM (inactive) | 1.91 µM (inactive) | 1.62 µM (inactive) | 3.24 µM (inactive) | 2.87 µM (inactive) | 2.33 µM (inactive)
22 | NC1=NCC(c2ccccn2)C1c1ccc(F)cc1 (centres undefined) | > 100 µM (inactive) | > 100 µM (inactive) | > 100 µM (inactive) | > 100 µM (inactive) | > 100 µM (inactive) |  | > 100 µM (inactive) | > 100 µM (inactive) | > 100 µM (inactive)
23 | COc1cc(-c2ccc(Nc3ccccc3C(=O)O)c(OC)c2)ccc1Nc1ccccc1C(=O)O | 1.68 µM (inactive) | > 56 µM (inactive) | > 28 µM (inactive) |  | > 100 µM (inactive) | 1.81 µM (inactive) | 32 µM (inactive) | > 40.1 µM (inactive) | 
24 | CCCC(S(=O)(=O)c1ccccc1)S(=O)(=O)c1ccccc1 | > 100 µM (inactive) | > 100 µM (inactive) | > 100 µM (inactive) | > 100 µM (inactive) |  | > 100 µM (inactive) | > 100 µM (inactive) | > 100 µM (inactive) | > 100 µM (inactive)
25 | O=C1C(N2C(=O)c3ccccc3C2=O)CN1C(COCc1ccccc1)c1ccc(OCc2ccccc2)cc1 (centres undefined) | > 100 µM (inactive) | > 100 µM (inactive) | > 100 µM (inactive) | > 100 µM (inactive) |  | > 100 µM (inactive) | > 100 µM (inactive) | > 100 µM (inactive) | 
26 | CC[C@@]1(O)C(=O)OCc2c1c(Cl)c1n(c2=O)Cc2cc3ccccc3nc2-1 | 8.15 µM (inactive) | 4.47 µM (inactive) | 6.68 µM (inactive) | 1.67 µM (inactive) | 3.21 µM (inactive) | 0.605 µM (active) | 7.18 µM (inactive) | 3.07 µM (inactive) | 2.48 µM (inactive)
27 | CCOc1ccc(NC(=O)CC2C(=O)Nc3ccccc3[S+]2[O-])cc1 (centres undefined) | > 80 µM (inactive) | > 46.5 µM (inactive) | > 100 µM (inactive) | > 100 µM (inactive) | > 100 µM (inactive) | > 67.1 µM (inactive) | > 100 µM (inactive) | 38.8 µM (inactive) | > 84.9 µM (inactive)
28 | Cn1c2ccccc2c(=O)c2c(O)cc3c(c21)CC(C1(C)CO1)O3 (centres undefined) | 0.229 µM (active) | 4.66 µM (inactive) | 3.64 µM (inactive) |  | 32.3 µM (inactive) | 21.9 µM (inactive) |  | 1.88 µM (inactive) | 3.61 µM (inactive)
